In patent US4999363A, “Tricyclic compounds” (priority 1988, dated 1991):

Legend:
[1] = biological target: T1, TXA2 /prostaglandin H2 receptor (Cavia porcellus, UniProt A0A286Y4I8); experiment: Anti-aggregatory effect: inhibition of platelet aggregation induced by U-46619 (TXA2-antagonizing action); assay type: cell-based, guinea pig (Hartley strain); conditions: minimum concentration inhibiting aggregation by 30% or more; U-46619 0.5-1 μM; guinea pig PRP
T1 construct: platelet rich plasma (PRP) was obtained; endogenous in cells; host or cells: guinea pig (Hartley) platelets in platelet rich plasma
T1 sequence (A0A286Y4I8 1-347): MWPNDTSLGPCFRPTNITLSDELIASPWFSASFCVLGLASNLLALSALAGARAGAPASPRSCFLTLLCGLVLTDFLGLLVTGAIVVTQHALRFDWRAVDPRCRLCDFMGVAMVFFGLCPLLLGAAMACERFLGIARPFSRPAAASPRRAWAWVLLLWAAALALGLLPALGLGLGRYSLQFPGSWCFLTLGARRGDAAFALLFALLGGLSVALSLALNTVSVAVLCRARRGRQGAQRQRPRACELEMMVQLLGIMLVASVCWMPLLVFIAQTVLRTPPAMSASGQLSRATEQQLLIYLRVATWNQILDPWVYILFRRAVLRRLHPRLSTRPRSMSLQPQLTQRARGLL
Description: TEST ON ANTI A[…] (TXA2 -AN[…])
Using guinea pig platelet, influence of the compounds on platelet aggregation induced by U-46619 (9,11-dideoxy-9α,11a-methanoepoxyprostaglandin F2α; manufactured by Cayman Chemical Co., Ltd.) which was a TXA2 /prostaglandin H2 receptor stimulant was examined.
Male guinea pig (Hartley strain; body weight, 300 to 600 g) was anesthesized by intraperitoneal administration of sodium pentobarbital (30 mg/kg) and blood was collected from the descending aorta of the abdomen with a 1/10 volume of 3.8% trisodium citrate. By centrifugation (KC-70: manufactured by Kubota Co., Ltd.) at 800 rpm for 15 minutes, platelet rich plasma (PRP) was obtained, Platelet aggregation induced by U-46619 (0.5-1 μM) was determined by photometry [Born, G.V.R. et al., Nature (London), 194, 927-929 (1962)]. A test compound was pretreated for 3 minutes and the ability to inhibit aggregation was determined. The minimum concentration which inhibits platelet aggregation by 30% or more was defined as the minimum effective concentration (MEC) of the test compound.

dd strain male mice = experiment: Acute toxicity test (MLD, mortality for seven days); assay type: in vivo; conditions: minimum lethal dose, 7 days; for Acute Toxicity (MLD) ip: intraperitoneal
Description: Using three dd strain male mice weighing 20±1 g, a test compound was orally (po; 300 mg/kg) or intraperitoneally (ip; 100 mg/kg) administered. MLD (the minimum lethal dose) was determined by observing the mortality for seven days after administration.

TXA2 biosynthesis = TXA2 biosynthesis inhibitory test (bovine platelet microsome, TXB2 by radioimmunoassay); assay type: biochemical; conditions: in 10 μM
Description: TXA2 BIOSYNTHESIS INHIBITORY TEST
After a mixture of 70 μl (40 μg of protein, 100 mM Tris-hydrochloridebuffer, pH 7.4) of bovine platelet microsome and 10 μl (10% methanol-containing 100 mM Tris-hydrochloride buffer) of a test compound solution was settled at 0° C. for 5 minutes, 20 μl of prostaglandin H2 solution (0.1 nmol, in Tris-hydrochloride buffer described above containing 20% acetone) as substrate was added to the mixture. Five minutes after, 2.9 ml of stopping solution [100 mM, Trishydrochloride buffer containing 0.1 μM of OKY-1581; Tromb. Res. 23, 145 (1981)] was added to stop the reaction.
TXA2 was unstable in the buffer solution, and nonenzymatically converted to TXB2. An amount of thromboxane B2 (TXB2) formed in the reaction solution was determined by radioimmunoassay [F. A. Fitzpatrick et al., Methods in Enzymology, 86, 286 (1982)]. An inhibition rate of the test compound was calculated according to the following equation. [formula]
The amount of TXB2 formed in control refers to a value obtained when the same reaction was carried out, using a solvent containing no test compound.
The amount of TXB2 formed in blank refers to a value obtained when the reaction was carried out in the system in which the stopping solution was added prior to adding substrate.

[2] = tested on: thrombus formation on cotton thread; experiment: Antithrombotic activity: thrombus formation on cotton thread in extracorporeal circulation path; assay type: in vivo, Wistar male rats; conditions: oral, rat, 2 hours prior, mean ± standard error, control 25.9 ± 1.2
Description: Effect of a test compound on thrombus formation on cotton thread which was kept in an extracorporeal circulation path for the artery and vein in anesthesized rats was examined in a manner similar to the method of Smith et al. [Br. J. Pharmacol., 77, 29 (1982)].
Wistar male rats weighing 250 to 400 g were anesthesized by intraperitoneal administration of sodium pentobarbital at a dose of 30 mg/kg and an extracorporeal circulation path made of a polyethylene tube having a length of 30 cm extending from the right carotid artery to the left jugular vein was installed. Cotton thread (No. 30) having a length of 5.5 cm was inserted into the circulation path and a weight of thrombus formed on the cotton thread during blood perfusion for 15 minutes was measured. Similar operations were performed twice and the total weight of thrombus formed by the two blood perfusions was shown as the weight of thrombus. […]

Structure (SMILES)	TXA2 Antagonizing Activity (MEC) [1]	Acute Toxicity (MLD) ip (dd strain male mice)	Acute Toxicity (MLD) po (dd strain male mice)	TXA2 Biosynthesis Inhibitory Activity Inhibition Rate (TXA2 biosynthesis)	Weight of Thrombus ([2]; 30 mg/kg)	Weight of Thrombus ([2]; 100 mg/kg, **P < 0.01)
O=C(O)Cc1ccc(CCNS(=O)(=O)c2ccc(Cl)cc2)cc1 [BM13505, reference compound]	0.1 µg/mL	> 100 mg/kg	> 300 mg/kg	8%	–	–
O=C(O)COc1ccc(CCNS(=O)(=O)c2ccccc2)cc1 [BM13177]	–	–	–	–	24.8 ± 1.8 mg	18.9 ± 1.8 mg
C/C(=C\c1ccc(Cc2cccnc2)cc1)C(=O)O [OKY 1581, reference compound]	30 µg/mL	> 100 mg/kg	> 300 mg/kg	100%	–	–
Cn1cnnc1SC/C=C1\c2ccccc2COc2ccc(C(=O)O)cc21 [Compound E-156b, (E)-11-[2-[(4-Methyl-4H-1,2,4-triazol-3-yl)thio]ethylidene]-6,11-dihydrodibenz[b,e]oxepin-2-carboxylic acid]	1.0 µg/mL	> 100 mg/kg	> 300 mg/kg	-10%	–	–
O=C(O)c1ccc2c(c1)/C(=C/Cn1ccnc1)c1ccccc1CO2 [Compound E-37b', (E)-11-[2-(1-imidazolyl)ethylidene]-6,11-dihydrodibenz[b,e]oxepin-2-carboxylic acid 0.2 hydrate]	3 µg/mL	> 100 mg/kg	> 300 mg/kg	94%	–	–
COc1ccc2c(c1)ncn2C/C=C1\c2ccccc2COc2ccc(C(=O)O)cc21 [Compound E-61b, (E)-11-[2-(5-Methoxy-1-benzimidazolyl)ethylidene]-6,11-dihydrodibenz[b,e]oxepin-2-carboxylic acid]	0.1 µg/mL	–	–	1%	–	–
COc1ccc2ncn(C/C=C3\c4ccccc4COc4ccc(C(=O)O)cc43)c2c1 [Compound E-62b, (E)-11-[2-(6-Methoxy-1-benzimidazolyl)ethylidene]-6,11-dihydrodibenz[b,e]oxepin-2-carboxylic acid]	1 µg/mL	–	–	11%	–	–
O=C(O)c1ccc2c(c1)C(NCc1cccnc1)c1ccccc1CO2 (stereo not drawn) [Compound 9c, 11-[(3-Pyridyl)methyl]amino-6,11-dihydrodibenz[b,e]oxepin-2-carboxylic acid]	30 µg/mL	> 100 mg/kg	> 300 mg/kg	100%	–	–
O=C(O)c1ccc2c(c1)C(SCc1cccnc1)c1ccccc1CO2 (stereo not drawn) [Compound 14b, 11-[(3-Pyridyl)methyl]thio-6,11-dihydrodibenz[b,e]oxepin-2-carboxylic acid]	3 µg/mL	> 100 mg/kg	> 300 mg/kg	100%	–	–
COc1cc2ncn(C/C=C3\c4ccccc4COc4ccc(C(=O)O)cc43)c2cc1OC [Compound E-101b, (E)-11-[2-(5,6-Dimethoxy-1-benzimidazolyl)ethylidene]-6,11-dihydrodibenz[b,e]oxepin-2-carboxylic acid]	0.3 µg/mL	> 100 mg/kg	> 300 mg/kg	17%	–	–
O=C(O)c1ccc2c(c1)C(=NCc1cccnc1)c1ccccc1CO2 [Compound 25b, 11-[(3-Pyridyl)methyl]imino-6,11-dihydrodibenz[b,e]oxepin-2-carboxylic acid]	1 µg/mL	> 100 mg/kg	> 300 mg/kg	100%	–	–
CN(C)CC/C=C1/c2ccccc2COc2ccc(CC(=O)O)cc21 [KW 4679, reference compound]	30 µg/mL	> 100 mg/kg	> 300 mg/kg	1%	–	–
